In PMC8253140 (Drug Delivery, 2017):
Like-named read-outs stand apart in the source and are kept apart here. Residues, ends and D or L forms follow the SMILES beside them. No end group written: not given here. *: point of attachment. Paclitaxel(2'-O-succinyl) = CC(=O)O[C@H]1C(=O)[C@@]2(C)[C@H]([C@H](OC(=O)c3ccccc3)[C@]3(O)C[C@H](OC(=O)[C@H](OC(=O)CCC(=O)*)[C@@H](NC(=O)c4ccccc4)c4ccccc4)C(C)=C1C3(C)C)[C@]1(OC(C)=O)CO[C@@H]1C[C@@H]2O

Key:
A549T cells [1] = assay: Cytotoxicity study, MTT colorimetric assay; assay type: cell-based; details: for IC50 value as % of the IC50 of PTX: 24 h, GraphPad Prism, p < 0.01 vs PTX
Procedure: The inhibitory activities of the drug samples on cell growth were evaluated using a 3-(4,5-dimethylthiazol-2-yl)-2,5-diphenyltetrazolium bromide (MTT) colorimetric assay. A549 and A549T cells were harvested by trypsinization and resuspended at a concentration of 2 × 10^4 cells/mL in fresh culture medium. Then, the cells were seeded at a density of 5000 cells per well in 96-well plates. […] The concentration of the drugs ranged from 0.1 μM to 100 μM. After 24 h of incubation, the drug-containing media were abandoned, and 20 μL of MTT (5 mg/mL) solution was added to each well. The plate was incubated for an additional 4 h, and then, 200 mL of DMSO was added to each well to dissolve any formed purple formazan crystals. The plates were vigorously shaken before measuring the relative color intensity. The absorbance at 570 nm of each well was measured with a plate reader.

A549 cells [2] = assay: Cytotoxicity study, MTT colorimetric assay; details: for IC50 value as % of the IC50 of PTX: 24 h, GraphPad Prism, p < 0.01 vs PTX
Procedure: The inhibitory activities of the drug samples on cell growth were evaluated using a 3-(4,5-dimethylthiazol-2-yl)-2,5-diphenyltetrazolium bromide (MTT) colorimetric assay. A549 and A549T cells were harvested by trypsinization and resuspended at a concentration of 2 × 10^4 cells/mL in fresh culture medium. Then, the cells were seeded at a density of 5000 cells per well in 96-well plates. […] The concentration of the drugs ranged from 0.1 μM to 100 μM. After 24 h of incubation, the drug-containing media were abandoned, and 20 μL of MTT (5 mg/mL) solution was added to each well. The plate was incubated for an additional 4 h, and then, […] of DMSO was added to each well to dissolve any formed purple formazan crystals. The plates were vigorously shaken before measuring the relative color intensity. The absorbance at 570 nm of each well was measured with a plate reader.

A549 cells [3] = assay: Cell apoptosis detection, annexin V-FITC/PI flow cytometry; assay type: cell-based; details: 10 μM, 48 h, triplicate
Procedure: (§1) Cell apoptosis was determined by an annexin V-FITC/PI assay. The externalization of phosphatidylserine, a result of early stage apoptosis, was detected by FITC-annexin V protein staining, and the membrane damage due to late-stage apoptosis was detected by the binding of PI to nuclear DNA. Briefly, 2 × 10^5 A549 and A549T cells were plated in 6-well plates and incubated for 24 h. After exposure to the different drugs at a concentration of 10 μM for 48 h, the cells were harvested by trypsinization, washed in PBS twice and incubated in the dark for 10 min at room temperature in 500 μL of binding buffer containing annexin V-FITC (1 μg/mL) and PI (1 μg/mL). The cells were immediately analyzed by flow cytometry (Becton Dickinson, Franklin Lakes, NJ). The fluorescence intensity of annexin V-FITC was measured at an excitation/emission wavelength of 488/530 nm and that of PI was measured at an excitation/emission wavelength of 488/617 nm. Approximately 10 000 cells were analyzed in each of the samples. Each assay was repeated in triplicate.

A549T cells [4] = assay: as above; assay type: cell-based; details: 10 μM, 48 h, triplicate
Procedure: as §1

A549 tumor = assay type: in vivo, BALB/c nude mice; details: A549 tumor-bearing nude mice, 1000 μM, 100 μL, peritumoral injection three times over 8 d, six mice per group; for decrease of tumor volume compared with PTX: from 22 to 30 d; for tumor inhibition rate: tumors dissected and weighed after 24 or 30 d
Source text: (§2) The protocol to evaluate the in vivo antitumor efficacy of the PTX-CPP conjugates was approved by the ethics committee of Fudan University. Four-week-old female BALB/c nude mice were purchased and housed in the Animal Care Facilities in the School of Pharmacy, Fudan University. BALB/c mice bearing subcutaneous tumors were used as an animal model for the evaluation of the anticancer activities of PTX-LMWP and PTX-TAT. The subcutaneous tumor xenograft model was established by inoculating 2 × 10^6 A549 or A549T cells (in 100 μL of cell culture medium) into the subcutaneous tissue of the armpit of the right anterior limb (Gu et al., [2014]). Tumor size was measured with Vernier calipers for the largest (length) and smallest (width) superficial visible diameters of the protruding tumor mass through the skin. Tumor volumes were calculated according to the following formula: volume = 0.52 × W^2×L, where W and L represent the width and the length, respectively (Lee et al., [2011]). The drugs were administered 2 weeks after tumor implantation, when the size of the tumors reached approximately 100–150 mm^3. […] Each experimental group contained six mice. The mice were treated (100 μL volume) three times over 8 d via peritumoral injection. Tumor volumes were measured at 2-d intervals. At the end of the experiment, the mice were sacrificed, and necropsies were performed. The tumors were removed, weighed and fixed with formalin.

A549T tumor = assay type: in vivo, BALB/c nude mice; details: 1000 μM; for tumor growth (tumor volume) compared with the control: A549T tumor-bearing nude mice, 100 μL, peritumoral injection three times over 8 d; for tumor inhibition rate: mouse, in vivo
Source text: as §2

A549T cells [5] = assay type: cell-based; details: 5 μM, 48 h, triplicate
Procedure: After that, the cells were harvested by trypsinization, washed in PBS twice, and fixed in 70% cold ethanol for 24 h at 4 °C. The fixed cells were washed in cold PBS and then resuspended in 0.5 mL of PBS containing 50 μg/mL PI, 0.1% Triton-X-100, 0.1% sodium citrate, and 100 μg/mL RNase. After incubation at 4 °C in the dark for 30 min, the fluorescence-activated cells were sorted. The cellular DNA content was analyzed by flow cytometry (Becton Dickinson, Franklin Lakes, NJ). Each analysis contained at least 10 000 cells. […] The percentages of cells in different cell cycle phases were then recorded. Each experiment was performed in triplicate, and the results were expressed as the mean ± SD.

A549T cells [6] = assay: Mitochondrial membrane potential (Δψm) determination, JC-1 flow cytometry; assay type: cell-based; details: 10 μM, 48 h, triplicate
Procedure: Changes in the mitochondrial membrane potential (Δψm) were detected using JC-1 and analyzed with flow cytometry. Briefly, A549 and A549T cells were seeded at a density of 1 × 10^5 cells/mL in 6-well plates and exposed to the drugs (10 μM) for 48 h. The control experiments were performed by adding only culture medium. Then, the cells were harvested by trypsinization, washed in PBS twice, incubated with JC-1 ([…]) at 37 °C for 10 min in the dark, and finally analyzed by flow cytometry (Becton Dickinson, Franklin Lakes, NJ). Each assay was repeated in triplicate. JC-1 accumulates in mitochondria that have a high membrane potential and then dimerizes due to the high local concentrations achieved. Dimerized JC-1 emits red fluorescence, while monomeric JC-1 emits green fluorescence. The results are expressed as a ratio of red to green fluorescence.

A549 cells [7] = assay: Cellular uptake assay (intracellular drug accumulation); assay type: cell-based; details: 20 μM, incubation 15 min to 4 h, UPLC
Procedure: The cellular uptake experiment was implemented basing on the protocol designed by Meng with some modifications (Meng et al., [2011]). Briefly, A549 and A549T cells were cultivated in chambered 24-well plates with 5% CO2 at 37 °C for 48 h. Then, the adherent cells were washed twice with PBS. Each of the three drugs was diluted in cell medium at concentrations of 10 μM and 20 μM and added to the chambers. The cells were incubated for 2 h and washed four times with PBS after incubation. After that, the cells were scraped from the wells and quantitatively transferred to Eppendorf centrifuge tubes. The resulting cell/saline suspensions were sonicated for 20 cycles of 2 s each with 2 s of rest between each cycle using a probe sonicator. The lysed cell solution was centrifuged at 7000 g for 30 min at 4 °C. Then, 100 μL of the supernatant was withdrawn carefully and tested with UPLC (BEH C18, 1.7 μm, 2.1 × 50 mm). The flow rate was 0.3 mL/min, and the mobile phase consisted of 55% solvent A (PBS, pH = 5) and 45% solvent B (acetonitrile). To further test the change in cellular uptake against incubation time, the drugs (20 μM) were added to the cells, and the cells were then incubated for different times, ranging from 15 min to 4 h. The other steps of the experiment were performed as described above.

N=C(N)NCCC[C@H](NC(=O)[C@H](CCCNC(=N)N)NC(=O)[C@H](CCCNC(=N)N)NC(=O)[C@H](CCC(N)=O)NC(=O)[C@H](CCCNC(=N)N)NC(=O)[C@H](CCCNC(=N)N)NC(=O)[C@H](CCCCN)NC(=O)[C@H](CCCCN)NC(=O)[C@H](CCCNC(=N)N)NC(=O)CNC(=O)[C@H](Cc1ccc(O)cc1)NC(=O)CNC(=O)CNC(=O)CNC(=O)[C@@H](N)CS)C(=O)O [TAT, reference compound]
toxicity of the CPPs alone (cell viability) (A549T cells [1]; A549T cells, MTT, same molar concentrations as PTX): No harmful effect
toxicity of the CPPs alone (cell viability) (A549 cells [2]; A549 cells, MTT, same molar concentrations as PTX): No harmful effect

VSRRRRRRGGRRRR [LMWP, reference compound]
toxicity of the CPPs alone (cell viability) (A549T cells [1]): No harmful effect
toxicity of the CPPs alone (cell viability) (A549 cells [2]): No harmful effect

CC(=O)O[C@H]1C(=O)[C@@]2(C)[C@H]([C@H](OC(=O)c3ccccc3)[C@]3(O)C[C@H](OC(=O)[C@H](OC(=O)CCC(=O)NCCN4C(=O)CC(SC[C@H](N)C(=O)NCC(=O)NCC(=O)NCC(=O)N[C@@H](Cc5ccc(O)cc5)C(=O)NCC(=O)N[C@@H](CCCNC(=N)N)C(=O)N[C@@H](CCCCN)C(=O)N[C@@H](CCCCN)C(=O)N[C@@H](CCCNC(=N)N)C(=O)N[C@@H](CCCNC(=N)N)C(=O)N[C@@H](CCC(N)=O)C(=O)N[C@@H](CCCNC(=N)N)C(=O)N[C@@H](CCCNC(=N)N)C(=O)N[C@@H](CCCNC(=N)N)C(=O)O)C4=O)[C@@H](NC(=O)c4ccccc4)c4ccccc4)C(C)=C1C3(C)C)[C@]1(OC(C)=O)CO[C@@H]1C[C@@H]2O (stereo partly drawn) [PTX-TAT]
percentage of late apoptotic cells (PI+/annexin V+) (A549 cells [3]): 72.57%
percentage of early apoptotic cells (PI−/annexin V+) (A549T cells [4]): 23.15%
percentage of late apoptotic cells (PI+/annexin V+) (A549T cells [4]): 54.20%
decrease of tumor volume compared with PTX (A549 tumor): 1.51–1.77 fold
tumor inhibition rate (A549 tumor): 63.32%
tumor growth (tumor volume) compared with the control (A549T tumor): considerable antitumor effect
tumor inhibition rate (A549T tumor): 42.47%
IC50 value as % of the IC50 of PTX (A549T cells [1]; A549T cells, MTT): 39.5%
IC50 value as % of the IC50 of PTX (A549 cells [2]; A549 cells, MTT): 47.2%
effect on cell-cycle distribution (A549T cells [5]): higher tetraploid-G2/M phase arrest than those incubated with PTX

CC(=O)O[C@H]1C(=O)[C@@]2(C)[C@H]([C@H](OC(=O)c3ccccc3)[C@]3(O)C[C@H](OC(=O)[C@H](OC(=O)CCC(=O)N[C@H](C(=O)N[C@@H](CO)C(=O)N[C@@H](CCCNC(=N)N)C(=O)N[C@@H](CCCNC(=N)N)C(=O)N[C@@H](CCCNC(=N)N)C(=O)N[C@@H](CCCNC(=N)N)C(=O)N[C@@H](CCCNC(=N)N)C(=O)N[C@@H](CCCNC(=N)N)C(=O)NCC(=O)NCC(=O)N[C@@H](CCCNC(=N)N)C(=O)N[C@@H](CCCNC(=N)N)C(=O)N[C@@H](CCCNC(=N)N)C(=O)N[C@@H](CCCNC(=N)N)C(=O)O)C(C)C)[C@@H](NC(=O)c4ccccc4)c4ccccc4)C(C)=C1C3(C)C)[C@]1(OC(C)=O)CO[C@@H]1C[C@@H]2O [PTX-LMWP] ({Paclitaxel(2'-O-succinyl)}-VSRRRRRRGGRRRR-OH; N-terminus and C-terminus assumed)
percentage of late apoptotic cells (PI+/annexin V+) (A549 cells [3]): 84.03%
percentage of early apoptotic cells (PI−/annexin V+) (A549T cells [4]): 38.10%
percentage of late apoptotic cells (PI+/annexin V+) (A549T cells [4]): 55.75%
decrease of tumor volume compared with PTX (A549 tumor): 1.45–1.80 fold
tumor inhibition rate (A549 tumor): 62.92%
tumor growth (tumor volume) compared with the control (A549T tumor): considerable antitumor effect
tumor inhibition rate (A549T tumor): 43.13%
IC50 value as % of the IC50 of PTX (A549T cells [1]; A549T cells, MTT): 21.5%
IC50 value compared with PTX-TAT (A549T cells [1]; A549T cells, MTT, p < 0.01): remarkably lower than that of PTX-TAT
IC50 value as % of the IC50 of PTX (A549 cells [2]; A549 cells, MTT): 33.5%
effect on cell-cycle distribution (A549T cells [5]): limited generation of tetraploids but a large number of cells in diploid-S phase cell-cycle arrest
effect on mitochondrial membrane potential (Δψm), ratio of red to green JC-1 fluorescence (A549T cells [6]): significant breakdown of the Δψm compared with the PTX-TAT treatment
cellular uptake against incubation time (A549 cells [7]): stronger than that of PTX-TAT
